Measurements: patent US20170334899A1, “AMINO-SUBSTITUTED ISOTHIAZOLES” (Bayer Pharma Aktiengesellschaft, priority 2014, published 2017)

System: human cervical tumor cell line HeLa (ATCC CCL-2)
Assay: SAC-Formation - Paclitaxel-Induced Assay
Type: cell-based
Settings: Homo sapiens, HeLa, 24 h, HeLa cells, paclitaxel 0.05 μM, test range 0.005 μM-20 μM, read-out: IC50 [mol/l] SAC-Formation - Paclitaxel-Induced Assay
Outline: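 Read-out is high-content imaging of anti-phospho-H3 Ser10 (mitosis) and Hoechst 33342 (DNA, cell number), with decreased mitotic fraction marking checkpoint breakthrough. Compounds (0.005–20 μM) and 0.05 μM paclitaxel co-added to overnight-plated HeLa for 24 h at 37° C; four-parameter Hill fit.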

IC50 [µM] | Structure (SMILES)
0.089 | Cc1nsc(Nc2cncc(C(F)(F)F)n2)c1C(=O)Nc1ccc(OCCCNC(=O)OC(C)(C)C)nc1 [Example 190, tert-butyl {3-[(5-{[(3-methyl-5-{[6-(trifluoromethyl)pyrazin-2-yl]amino}-1,2-thiazoL-4-yl)carbonyl]amino}pyridin-2-yl)oxy]propyl}carbamate]
2.3 | Cc1nsc(Nc2cnc3ccccc3n2)c1C(=O)Nc1ccc(NC2CCCN(C(=O)OC(C)(C)C)C2)nc1 (stereo not shown) [Example 241, tert-butyl 3-{[5-({[3-methyl-5-(quinoxalin-2-ylamino)-1,2-thiazol-4-yl]carbonyl}amino)pyridin-2-yl]amino}piperidine-1-carboxylate]
0.14 | Cc1nsc(Nc2cnccn2)c1C(=O)Nc1ccc(C(=O)OC(C)(C)C)cc1 [Example 184, tert-butyl 4-({[3-methyl-5-(pyrazin-2-ylamino)-1,2-thiazol-4-yl]carbonyl}amino)benzoate]
4.1 | Cc1nsc(Nc2cnc3ccccc3n2)c1C(=O)Nc1ccc(Oc2ccc(SC(F)(F)F)cc2)nc1 [Example 233, 3-methyl-5-(quinoxalin-2-ylamino)-N-(6-{4-[(trifluoromethyl)sulfanyl]phenoxy}pyridin-3-yl)-1,2-thiazole-4-carboxamide]
2.2 | Cc1nsc(Nc2ccc(C#N)cn2)c1C(=O)Nc1cccc(NC(=O)OC(C)(C)C)c1 [Example 179, tert-butyl {3-[({5-[(5-cyanopyridin-2-yl)amino]-3-methyl-1,2-thiazol-4-yl}carbonyl)amino]phenyl}carbamate]
1.3 | Cc1nsc(Nc2cncc(C(F)(F)F)n2)c1C(=O)Nc1ccc(OCCN)nc1 [Example 196, N-[6-(2-aminoethoxy)pyridin-3-yl]-3-methyl-5-{[6-(trifluoromethyl)pyrazin-2-yl]amino}-1,2-thiazole-4-carboxamide]
2.9 | Cc1nsc(Nc2cnc(C(F)(F)F)cn2)c1C(=O)Nc1ccc(C(=O)NCCN2CCCC(F)C2)cc1 (stereo not shown) [Example 213, N-(4-{[2-(3-fluoropiperidin-1-yl)ethyl]carbamoyl}phenyl)-3-methyl-5-{[5-(trifluoromethyl)pyrazin-2-yl]amino}-1,2-thiazole-4-carboxamide]
0.45 | Cc1nsc(Nc2cncc(C(F)(F)F)n2)c1C(=O)Nc1ccc(F)c(C(N)=O)c1 [Example 204, N-(3-carbamoyl-4-fluorophenyl)-3-methyl-5-{[6-(trifluoromethyl)pyrazin-2-yl]amino}-1,2-thiazole-4-carboxamide]
0.1 | Cc1nsc(Nc2cnc3ccccc3n2)c1C(=O)Nc1ccc(C(=O)OC(C)(C)C)cc1 [Example 181, tert-butyl 4-({[3-methyl-5-(quinoxalin-2-ylamino)-1,2-thiazol-4-yl]carbonyl}amino)benzoate]
0.072 | Cc1nsc(Nc2cnc(C(F)(F)F)cn2)c1C(=O)Nc1ccc(OCCNC(=O)OC(C)(C)C)c(F)c1 [Example 215, tert-butyl [2-(2-fluoro-4-{[(3-methyl-5-{[5-(trifluoromethyl)pyrazin-2-yl]amino}-1,2-thiazol-4-yl)carbonyl]amino}phenoxy)ethyl]carbamate]
0.082 | Cc1nsc(Nc2cc(C#N)ccn2)c1C(=O)Nc1ccc(Oc2cccc(C(F)(F)F)c2)nc1 [Example 230, 5-[(4-cyanopyridin-2-yl)amino]-3-methyl-N-{6-[3-(trifluoromethyl)phenoxy]pyridin-3-yl}-1,2-thiazole-4-carboxamide]
13 | Cc1nsc(Nc2cncc(C(F)(F)F)n2)c1C(=O)Nc1ccc(OC2CCNCC2)nc1 [Example 13, 3-Methyl-N-[6-(piperidin-4-yloxy)pyridin-3-yl]-5-{[6-(trifluoromethyl)pyrazin-2-yl]-amino}-1,2-thiazole-4-carboxamide]
0.18 | Cc1nsc(Nc2cncc(C(F)(F)F)n2)c1C(=O)Nc1ccc(OC2CCN(CC(F)F)CC2)c(F)c1 [Example 224, N-(4-{[1-(2,2-difluoroethyl)piperidin-4-yl]oxy}-3-fluorophenyl)-3-methyl-5-{[6-(trifluoromethyl)pyrazin-2-yl]amino}-1,2-thiazole-4-carboxamide]
